Legend:
Phosphodiesterase 3 = Phosphodiesterase 3 (Homo sapiens, UniProt Q14432+Q13370); assay: Inhibition of cAMP PDE III enzyme; format: protein assay, Cavia porcellus
Canis familiaris = assay: 50% increase in myocardial contractility (dP/dt max) in anesthetized dogs on intravenous dose; format: functional; settings: Canis lupus familiaris, Myocardium
Phosphodiesterase 1 [1] = molecular target: T1, Phosphodiesterase 1 (Homo sapiens, UniProt P54750+Q01064+Q14123); assay: Inhibition cGMP PDE I enzyme; format: protein assay, Cavia porcellus
Phosphodiesterase 1 [2] = molecular target: T1, Phosphodiesterase 1; assay: Inhibition of cAMP PDE I enzyme; format: protein assay, Cavia porcellus
[3] = molecular target: T2, cGMP-dependent 3',5'-cyclic phosphodiesterase (Homo sapiens, UniProt O00408); assay: Inhibition of cAMP PDE II enzyme; design: species or system Cavia porcellus
T2 sequence (O00408 whole entry): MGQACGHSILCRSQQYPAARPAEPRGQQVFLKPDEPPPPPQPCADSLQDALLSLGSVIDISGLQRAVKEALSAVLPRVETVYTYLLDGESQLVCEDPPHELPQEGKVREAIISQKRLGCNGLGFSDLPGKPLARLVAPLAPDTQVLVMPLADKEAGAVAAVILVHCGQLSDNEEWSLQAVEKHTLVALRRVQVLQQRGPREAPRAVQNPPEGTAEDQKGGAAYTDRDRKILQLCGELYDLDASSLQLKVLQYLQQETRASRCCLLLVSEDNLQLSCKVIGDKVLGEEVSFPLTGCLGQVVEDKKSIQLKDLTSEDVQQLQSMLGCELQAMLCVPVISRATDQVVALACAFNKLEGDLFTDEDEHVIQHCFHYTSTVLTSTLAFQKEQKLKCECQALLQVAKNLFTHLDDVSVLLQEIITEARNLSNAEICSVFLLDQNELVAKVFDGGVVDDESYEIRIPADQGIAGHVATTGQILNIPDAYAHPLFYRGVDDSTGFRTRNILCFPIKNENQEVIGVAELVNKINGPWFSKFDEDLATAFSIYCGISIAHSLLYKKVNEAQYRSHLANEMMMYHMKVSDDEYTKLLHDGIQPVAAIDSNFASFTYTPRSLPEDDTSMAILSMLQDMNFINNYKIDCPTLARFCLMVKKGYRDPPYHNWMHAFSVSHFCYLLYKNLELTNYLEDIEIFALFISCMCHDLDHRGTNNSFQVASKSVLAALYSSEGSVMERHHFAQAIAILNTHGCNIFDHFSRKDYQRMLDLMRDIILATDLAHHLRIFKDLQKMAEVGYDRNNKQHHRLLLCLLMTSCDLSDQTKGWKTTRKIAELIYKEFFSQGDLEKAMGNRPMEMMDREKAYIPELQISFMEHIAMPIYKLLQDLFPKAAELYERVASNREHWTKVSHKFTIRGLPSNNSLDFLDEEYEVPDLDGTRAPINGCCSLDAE

[4] = molecular target: T2, cGMP-dependent 3',5'-cyclic phosphodiesterase; assay: Inhibition of cGMP PDE II enzyme; design: species or system Cavia porcellus

Row | IC50 (Phosphodiesterase 1 [1]) [µM] | SMILES | ED50 (Canis familiaris) [mg/kg] | other results
1 |  | CC1CC(=O)NN=C1c1ccc2c(c1)CCC(=O)N2C (stereo unspecified) |  | IC50 (Phosphodiesterase 3): 0.12 µM
2 |  | O=C1CC2Cc3cc(-n4ccnc4)ccc3C2=NN1 (stereo unspecified) | 0.023 | 
3 | > 1000 | O=C1CCC(c2cccc(-n3ccnc3)c2)=NN1 |  | 
4 |  | O=C1CC2Cc3cc(-n4cnc5c4CCCC5)ccc3C2=NN1 (stereo unspecified) | 0.05 | IC50 (Phosphodiesterase 3): 1.2 µM
5 | 130 | CC1=C(c2ccc(-n3ccnc3)cc2)CC(C#N)C(=O)N1 (stereo unspecified) | 0.01 | IC50 (Phosphodiesterase 1 [2]): 39 µM; IC50 [3]: 43 µM; IC50 [4]: 120 µM
6 |  | CSc1ccc(C(=O)c2[nH]c(=O)[nH]c2C)cc1 [ENOXIMONE] | 0.28 | 
7 | > 1000 | Nc1cc(-c2ccncc2)c[nH]c1=O [INAMRINONE] | 0.39 | IC50 (Phosphodiesterase 1 [2]): > 1000 µM
8 |  | Cc1[nH]c(=O)c(C#N)cc1-c1ccncc1 [MILRINONE] | 0.04 | 
9 |  | CCc1[nH]c(=O)[nH]c1C(=O)c1ccncc1 [PIROXIMONE] | 0.1 | 
